Data: patent US10820591B2, “Substituted sulfonyl amides for controlling animal pests” (Bayer Aktiengesellschaft, priority 2016, dated 2020)
Where two headings read alike, the source gives them in different places.

Tests used:
Meloidogyne incognita = Meloidogyne incognita test (sand, lettuce, gall formation); format: in vivo; details: Meloidogyne incognita, 336 h, 20 ppm, after 14 days; read-out: nematicidal efficacy (formation of galls)
Outline: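 Gall counts on lettuce roots were scored after 14 days in sand inoculated with root-knot nematode eggs/larvae plus compound diluted in water. Values run from 0% (galls as in untreated plants) to 100% (gall-free).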

Myzus persicae [1] = experiment: Myzus persicae oral test; format: in vivo; details: 120 h, after 5 days, read-out: efficacy
Experimental: Myzus persicae—Oral Test [table] To produce a suitable active compound preparation, 1 part by weight of active compound is dissolved with the stated parts by weight of solvent and made up to the desired concentration with water. 50 μl of the active compound preparation are transferred into microtitre plates and made up to a final volume of 200 μl with 150 μl of IPL41 insect medium (33%+15% sugar). Subsequently, the plates are sealed with parafilm, which a mixed population of green peach aphids (Myzus persicae) within a second microtitre plate is able to puncture and imbibe the solution through it. After 5 days, the efficacy in % is determined. 100% means that all the aphids have been killed; 0% means that no aphids have been killed.

Myzus persicae [2] = experiment: Myzus persicae spray test (Chinese cabbage leaf discs); format: in vivo; details: foliar, 144 h, 500 g/ha, after 6 days, read-out: efficacy
Experimental: Myzus persicae—Spray Test [table] To produce a suitable active compound preparation, 1 part by weight of active compound is dissolved with the specified parts by weight of solvent and made up to the desired concentration with water containing an emulsifier concentration of 1000 ppm. To produce further test concentrations, the formulation is diluted with emulsifier-containing water. Discs of Chinese cabbage leaves (Brassica pekinensis) infested by all stages of the green peach aphid (Myzus persicae) are sprayed with an active compound preparation of the desired concentration. After 6 days, the efficacy in % is determined. 100% means that all the aphids have been killed; 0% means that no aphids have been killed.

[3] = log P by HPLC on reversed-phase column (C18), EEC Directive 79/831 Annex V.A8; format: physicochemical
Experimental: The log P values were determined according to EEC Directive 79/831 Annex V.A8 by HPLC (high-performance liquid chromatography) on a reversed-phase column (C18). Temperature 43° C. The calibration is effected with unbranched alkan-2-ones (having 3 to 16 carbon atoms), for which the log P values are known. Here, the terms acidic and neutral are defined analogously to the definitions below for the determination of M^+. The determination of the M^+ by LC-MS in the acidic range was carried out at pH 2.7 using the mobile phases 0.1% aqueous formic acid and acetonitrile (contains 0.1% formic acid); linear gradient from 10% acetonitrile to 95% acetonitrile, instrument: Agilent 1100 LC system, Agilent MSD system, HTS PAL. The determination of the M^+ by LC-MS in the neutral range was carried out at pH 7.8 using the mobile phases 0.001 molar aqueous ammonium bicarbonate solution and acetonitrile; linear gradient from 10% acetonitrile to 95% acetonitrile.

Tetranychus urticae = Tetranychus urticae spray test, OP-resistant; format: in vivo; details: foliar, 144 h, bean leaf discs, after 6 days, read-out: efficacy
Experimental: Tetranychus urticae—Spray Test, OP-Resistant
To produce a suitable active compound preparation, 1 part by weight of active compound is dissolved with the specified parts by weight of solvent and made up to the desired concentration with water containing an emulsifier concentration of 1000 ppm. To produce further test concentrations, the formulation is diluted with emulsifier-containing water.
Discs of bean leaves (Phaseolus vulgaris) infested with all stages of the greenhouse red spider mite (Tetranychus urticae) are sprayed with an active compound preparation of the desired concentration.
After 6 days, the efficacy in % is determined. 100% means that all the spider mites have been killed; 0% means that no spider mites have been killed.

[4] = reversed-phase C18 HPLC column, acidic range, pH 2.7, 0.1% aqueous formic acid/acetonitrile, 43° C., read-out: log P (acidic)
[5] = reversed-phase C18 HPLC column, pH 2.7, HCOOH (formic acid mobile phase), 43° C., read-out: log P (HCOOH)
[6] = reversed-phase C18 HPLC column, neutral range, pH 7.8, aqueous ammonium bicarbonate/acetonitrile, 43° C., read-out: log P (neutral)

SMILES	pest or weed control at 20 ppm (Meloidogyne incognita) [%]	pest or weed control at 500 g/ha (Tetranychus urticae) [%]	further results
CC(C)Nc1cccc(F)c1S(=O)(=O)NC(=O)c1cn(-c2cc(Cl)cc(Cl)c2)cn1 [I-392]	100		pest or weed control at 20 ppm (Myzus persicae [1]): 100%; pest or weed control at 500 g/ha (Myzus persicae [2]): 90%
CCCn1cnc(C(=O)O)c1Cl [5-chloro-1-propyl-1H-imidazole-4-carboxylic acid]			chromatographic logP ([3]; pH 2.7): 0.6
Cc1nc(C(=O)NS(=O)(=O)c2ccccc2Cl)cn1-c1cccc(Cl)c1Cl [I-264]	90		pest or weed control at 100 ppm (Myzus persicae [1]): 100%; pest or weed control at 500 g/ha (Myzus persicae [2]): 70%
CC(CC(F)(F)F)n1cnc(C(=O)NS(=O)(=O)c2ccc(Cl)cc2)c1Cl (stereo not drawn) [I-073]	100	90	
COc1ccc(Cl)c(S(=O)(=O)NC(=O)c2cn(-c3cc(F)cc(C(F)(F)F)c3)cn2)c1 [I-250]	100		pest or weed control at 100 ppm (Myzus persicae [1]): 100%
COc1ccc(Cl)c(S(=O)(=O)NC(=O)c2nc(C)n(-c3cc(Cl)cc(Cl)c3)c2F)c1 [N-[(2-chloro-5-methoxyphenyl)sulfonyl]-1-(3,5-dichlorophenyl)-5-fluoro-2-methyl-1H-imidazole-4-carboxamide]			chromatographic logP [3, 4]: 3.71
COC(=O)c1nc(Br)n(CCC(F)(F)F)c1Br [methyl 2,5-dibromo-1-(3,3,3-trifluoropropyl)-1H-imidazole-4-carboxylate]			chromatographic logP [3, 5]: 2.13
CCOC(=O)c1cn(-c2ccccc2Cl)c(C)n1 [ethyl 1-(2-chlorophenyl)-2-methyl-1H-imidazole-4-carboxylate]			chromatographic logP [3, 6]: 2.06
CCSc1cccc(Cl)c1S(=O)(=O)NC(=O)c1cn(-c2cc(Cl)cc(Cl)c2)cn1 [I-391]	100	70	
O=C(O)c1cn(Cc2c(F)cccc2F)cn1 [1-(2,6-difluorobenzyl)-1H-imidazole-4-carboxylic acid]			chromatographic logP ([3]; pH 2.7): 0.42
CCCn1cnc(C(=O)OCC)c1Cl [ethyl 5-chloro-1-propyl-1H-imidazole-4-carboxylate]			chromatographic logP [3, 6]: 1.7
O=C(NS(=O)(=O)c1ccccc1Cl)c1nc(Br)n(CCC(F)(F)F)c1Br [2,5-dibromo-N-[(2-chlorophenyl)sulfonyl]-1-(3,3,3-trifluoropropyl)-1H-imidazole-4-carboxamide]			chromatographic logP [3, 5]: 2.99
COc1ccc(Cl)c(S(=O)(=O)NC(=O)c2cn(Cc3c(F)cccc3F)cn2)c1 [N-[(2-chloro-5-methoxyphenyl)sulfonyl]-1-(2,6-difluorobenzyl)-1H-imidazole-4-carboxamide]			chromatographic logP [3, 4]: 2.18
CC(C)S(=O)(=O)NC(=O)c1cn(C)c(Cc2ccc(Cl)cc2)n1 [I-122]	90	100	pest or weed control at 500 g/ha (Myzus persicae [2]): 90%
COc1ccc(Cl)c(S(=O)(=O)NC(=O)c2nc(C)n(-c3cc(Cl)cc(Cl)c3)c2Cl)c1 [I-106]	100		pest or weed control at 4 ppm (Myzus persicae [1]; 4 ppm): 100%
O=C(NS(=O)(=O)c1ccc(Cl)cc1)c1cn(Cc2cccc(Cl)c2)cn1 [I-160]	70	70	
O=C(NS(=O)(=O)c1ccccc1Cl)c1cn(-c2ccc(C(F)(F)F)cc2Cl)cn1 [I-197]	100	70	
Cc1nc(C(=O)NS(=O)(=O)c2c(Cl)cccc2Cl)cn1-c1cc(Cl)cc(Cl)c1 [I-317]	100		pest or weed control at 20 ppm (Myzus persicae [1]): 90%; pest or weed control at 500 g/ha (Myzus persicae [2]): 90%
Cn1cc(C(=O)NS(=O)(=O)c2ccccc2Cl)nc1Cc1ccc(Cl)cc1 [I-121]	70	90	
CC(C)Oc1ccc(Cl)c(S(=O)(=O)NC(=O)c2nc(Cl)n(C3CC3C(F)(F)F)c2Cl)c1 (stereo not drawn) [I-460]	100		pest or weed control at 20 ppm (Myzus persicae [1]): 70%
N#Cc1c(C(=O)NS(=O)(=O)c2ccccc2Cl)ncn1CCC(F)(F)F [I-007]	70		pest or weed control at 20 ppm (Myzus persicae [1]): 70%

SMILES	pest or weed control at 20 ppm (Meloidogyne incognita) [%]	pest or weed control at 500 g/ha (Tetranychus urticae) [%]	further results
Cc1nc(C(=O)NS(=O)(=O)c2ccccc2)cn1Cc1ccccc1Cl [I-171]	100	90	pest or weed control at 500 g/ha (Myzus persicae [2]): 70%
O=C(NS(=O)(=O)c1ccccc1)c1cn(-c2cccc(Cl)c2)cn1 [I-172]	100	100	
Cc1nc(C(=O)NS(=O)(=O)c2c(Cl)cccc2Cl)cn1-c1ccccc1 [I-253]	100		pest or weed control at 100 ppm (Myzus persicae [1]): 100%; pest or weed control at 500 g/ha (Myzus persicae [2]): 90%
Cn1nc(C(=O)NS(C)(=O)=O)cc1-c1cc(Cl)ccn1 [I-127]	70		pest or weed control at 20 ppm (Myzus persicae [1]): 70%; pest or weed control at 500 g/ha (Myzus persicae [2]): 90%
Cc1ccc(S(=O)(=O)NC(=O)c2cn(-c3ccccc3)c(C)n2)cc1 [I-254]	100		pest or weed control at 100 ppm (Myzus persicae [1]): 100%; pest or weed control at 500 g/ha (Myzus persicae [2]): 90%
Cc1nc(C(=O)NS(=O)(=O)c2ccccc2Cl)cn1Cc1ccc(Cl)cc1 [I-170]	100	90	pest or weed control at 20 ppm (Myzus persicae [1]): 90%
O=C(NS(=O)(=O)Cc1ccccc1)c1ncn(CCC(F)(F)F)c1Cl [I-028]	100	90	
O=C(NS(=O)(=O)c1ccccc1)c1cn(-c2cccc(C(F)(F)F)c2)cn1 [I-173]	100	90	
COc1ccc(Cl)c(S(=O)(=O)NC(=O)c2cn(C)c(Cc3ccccc3)n2)c1 [I-373]	70	90	
Cc1nc(C(=O)NS(=O)(=O)c2ccccc2Cl)cn1-c1ccccc1Cl [I-269]	90		pest or weed control at 20 ppm (Myzus persicae [1]): 70%; pest or weed control at 500 g/ha (Myzus persicae [2]): 70%
CC(C)S(=O)(=O)NC(=O)c1nc(Cl)n(CCC(F)(F)F)c1Cl [I-492]		90	
Cc1cc(-n2cnc(C(=O)NS(=O)(=O)c3c(Cl)cccc3Cl)c2)cc(C(F)(F)F)c1 [I-291]	90		pest or weed control at 20 ppm (Myzus persicae [1]): 90%
Cc1cccc(CS(=O)(=O)NC(=O)c2ncn(CCC(F)(F)F)c2Cl)c1 [I-083]	90	90	
O=C(NS(=O)(=O)Cc1ccccc1Cl)c1ncn(CCC(F)(F)F)c1Cl [I-085]	90	70	pest or weed control at 500 g/ha (Myzus persicae [2]): 70%
Cc1nc(C(=O)NS(=O)(=O)c2ccccc2Cl)cn1-c1c(F)cccc1F [I-004]	90		pest or weed control at 20 ppm (Myzus persicae [1]): 70%
COc1ccc(Cl)c(S(=O)(=O)NC(=O)c2cn(-c3ccccc3Cl)c(C)n2)c1 [I-266]	100		pest or weed control at 20 ppm (Myzus persicae [1]): 90%
Cc1nc(C(=O)NS(=O)(=O)c2ccccc2)cn1-c1ccccc1F [I-255]	100	70	
Cn1cc(C(=O)NS(=O)(=O)c2ccccc2Cl)nc1Cc1ccccc1Cl [I-116]	90		pest or weed control at 20 ppm (Myzus persicae [1]): 90%; pest or weed control at 500 g/ha (Myzus persicae [2]): 70%
Cc1nc(C(=O)NS(=O)(=O)c2cc(Cl)ccc2Cl)cn1-c1cc(F)cc(Cl)c1 [I-330]	100	70	
COc1ccc(Cl)c(S(=O)(=O)NC(=O)c2ncn(-c3ccc(Cl)cc3)c2C(C)C)c1 [I-483]	70	80	
O=C(NS(=O)(=O)c1c(Cl)cccc1Cl)c1cn(-c2cc(Cl)cc(C(F)(F)F)c2)cn1 [I-286]	100		pest or weed control at 20 ppm (Myzus persicae [1]): 90%
